Reference: paper PMC6009888, “Design, synthesis, and pharmacological evaluation of 2-amino-5-nitrothiazole derived semicarbazones as dual inhibitors of monoamine oxidase and cholinesterase: effect of the size of aryl binding site” (Journal of Enzyme Inhibition and Medicinal Chemistry, 2017)
Several values for one entry are separate records, joined by “and”; a condition that tells them apart may be missing. Equal entries are not always repeated.

Experiments:
MAO-A = target: T1, MAO-A (Rattus norvegicus, UniProt P21396); assay: In vitro MAO-A inhibition assay (rat brain mitochondria, serotonin substrate); type: biochemical; conditions: rat brain mitochondria, serotonin substrate, mean ± SEM, triplicate; read-out: MAO-A In vitro IC50 (µM) ± SEM
T1 construct: employing crude rat brain mitochondrial suspension; from tissue; host or cells: brain mitochondria of adult Wistar rats
T1 sequence (P21396 1-526): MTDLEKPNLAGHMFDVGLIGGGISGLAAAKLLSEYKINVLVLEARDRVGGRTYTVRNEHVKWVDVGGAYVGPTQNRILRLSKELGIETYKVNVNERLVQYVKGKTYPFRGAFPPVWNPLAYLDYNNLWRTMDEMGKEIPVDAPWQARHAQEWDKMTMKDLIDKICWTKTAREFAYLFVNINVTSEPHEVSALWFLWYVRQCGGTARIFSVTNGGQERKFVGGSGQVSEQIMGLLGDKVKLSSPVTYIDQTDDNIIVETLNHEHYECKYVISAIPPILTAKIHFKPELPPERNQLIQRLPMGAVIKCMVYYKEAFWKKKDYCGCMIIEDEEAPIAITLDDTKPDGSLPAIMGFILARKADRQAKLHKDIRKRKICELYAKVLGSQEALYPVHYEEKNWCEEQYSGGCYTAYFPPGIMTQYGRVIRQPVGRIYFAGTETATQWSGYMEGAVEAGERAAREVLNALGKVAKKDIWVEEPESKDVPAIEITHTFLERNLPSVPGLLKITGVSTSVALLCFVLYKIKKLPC
Protocol: (§1) Rat brain mitochondria were used as a source of MAO isoforms. All operations were carried out at 4 °C[50]. Male and female adult Wistar rats weighing 200–220 g were decapitated. All brains were rapidly removed and homogenised with a Potter–Elvehjem homogeniser in cold 0.32 M sucrose and 50 mM Tris-HCl, pH 8.2 (10:1, v/w). The homogenate was centrifuged twice at 1000 g for 5 min at 4 °C. The resulting supernatant was centrifuged at 20,000 g for 20 min. The mitochondrial pellet obtained was suspended in 100 mM sodium phosphate buffer, pH 7.4 (4:1, v/w), fractionated in plastic vials to 500 µl samples and stored at −80 °C. Before use, mitochondria were diluted with 100 mM sodium phosphate buffer to give a working solution of 0.80 mg of protein per millilitre.
(§2) The experiments were carried out under all the suitable laboratory conditions. […] An aliquot was made to contain mixture of 55 µl mitochondrial suspension (0.80 mg of protein/ml), 90 µl 50 mM Tris-HCl buffer, pH 8.2 and 30 µl solubilising solution (control or inhibitor solution at five different concentrations). The reaction was initiated by adding 25 µl of serotonin (4 mM, substrate for MAO-A) and 25 µl benzylamine (0.1 M, substrate for MAO-B) for the determination of MAO-A and MAO-B activity, respectively. The mixture was incubated at 37 °C for 30 min and the reaction was stopped by the addition of 50 µl of 1 N HCl. The absorbance associated with the production of 5-hydroxyindolacetic acid was measured at 280 nm for the estimation of MAO-A while for MAO-B estimation, the absorbance was measured at 250 nm due to the formation of benzaldehyde. All the assays were performed in triplicate. Control experiments were carried out without inhibitor and blanks were run without mitochondrial suspension.
(§3) Data are expressed as mean ± standard error mean (SEM) of experiments performed in triplicate.
(§4) 0, 15, 30 and 60 min at 37 °C in Tris-HCl buffer (50 mM, pH 8.2). […] The reactions were further incubated at 37 °C for a further 15 min and the residual enzyme activities were measured and the bar graphs were constructed. All measurements were carried out in triplicate and are expressed as mean ± SEM.

[1] = In vitro DPPH radical scavenging assay; conditions: test sample 100 µg/ml, 100 µM methanolic DPPH, 30 min, 517 nm
Protocol: Antioxidant activity of the synthesised compounds (10 mg/ml) was evaluated using the radical scavenging capability against the stable free radical, 2,2′-diphenyl-1-picryl hydrazyl (DPPH·). The DPPH· scavenging capability was determined using UV based spectrophotometric assay. About 200 µl of the test sample solution (100 µg/ml) was added to 4 ml of 100 µM methanolic DPPH. […] Ascorbic acid (100 µg/ml) was used as reference. The percentage inhibition of DPPH activity was estimated using the formula: Percent (%) inhibition of DPPH activity = Acontrol-Asample/Acontrol×100 where Acontrol is the absorbance of DPPH· in methanol without an antioxidant and Asample is the absorbance of DPPH· in the presence of an antioxidant.

rat brain AChE = target: T2, rat brain AChE (Rattus norvegicus, UniProt P37136); assay: biochemical; type: biochemical; conditions: for IC50: rat brain AChE, ACTI substrate, mean ± SEM, triplicate, read-out: AChE In vitro IC50 (µM) ± SEM
T2 construct: the resulting clear supernatants obtained were used as enzyme sources; from tissue; host or cells: rat brain cortex homogenate, 10,000 g supernatant
Protocol: Rat brain was used as a source of AChE enzyme. Rats were separately decapitated, the brain cortices quickly removed, weighed and homogenised in cold 10 mM Tris-HCl buffer, pH 7.2, containing 160 mM sucrose. The homogenates were centrifuged at 10,000 g for 10 min at 4 °C, and the resulting clear supernatants obtained were used as enzyme sources that were divided into aliquots and stored at −20 °C.
About 30 µl of enzyme sample (AChE) was added to 60 µl of 20 mM sodium phosphate buffer (pH 7.4) and were incubated in the presence of 30 µl of 10 mM DTNB solution with different concentrations of the test compounds. The enzyme reaction was initiated by the addition of 30 µl of 0.8 mM ACTI. The mixtures were incubated for 15 min at 25 °C. […] Control experiments were carried out without inhibitor, and blanks were run without AChE enzyme. All the assays were performed in triplicate. IC50 values were determined using the GraphPad Prism 5.0 (San Diego, CA) and the results were expressed as mean ± SEM.
0, 15, 30 and 60 min at 25 °C in sodium phosphate buffer (20 mM, pH 7.4) and DTNB solution (10 mM). […] The reaction was further incubated at 25 °C for a further 15 min and the residual enzyme activities were measured and the bar graphs were constructed. All measurements were carried out in triplicate and are expressed as mean ± SEM.

MAO-B = target: T3, MAO-B (Rattus norvegicus, UniProt P19643); assay: biochemical; conditions: for SI (selectivity index for MAO-B): ratio of experimental IC50(MAO-A)/IC50(MAO-B)
T3 construct: employing crude rat brain mitochondrial suspension; from tissue; host or cells: brain mitochondria of adult Wistar rats
T3 sequence (P19643 1-520): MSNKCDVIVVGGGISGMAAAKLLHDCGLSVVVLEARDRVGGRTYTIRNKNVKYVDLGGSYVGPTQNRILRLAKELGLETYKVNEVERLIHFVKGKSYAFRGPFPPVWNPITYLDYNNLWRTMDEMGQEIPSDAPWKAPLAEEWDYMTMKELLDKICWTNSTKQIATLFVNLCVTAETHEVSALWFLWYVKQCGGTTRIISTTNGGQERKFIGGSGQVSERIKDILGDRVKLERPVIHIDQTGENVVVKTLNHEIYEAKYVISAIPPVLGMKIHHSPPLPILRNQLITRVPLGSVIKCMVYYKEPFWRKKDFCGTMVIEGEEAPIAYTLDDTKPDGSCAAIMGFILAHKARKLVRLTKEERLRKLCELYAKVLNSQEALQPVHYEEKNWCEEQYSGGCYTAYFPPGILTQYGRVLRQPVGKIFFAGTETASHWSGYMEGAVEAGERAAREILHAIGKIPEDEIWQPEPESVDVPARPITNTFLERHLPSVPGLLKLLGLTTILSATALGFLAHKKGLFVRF
Protocol: as §1, §2, §3, §4

physchem = conditions: octanol/water
mice = assay: Neurotoxicity screening (rotarod test); type: in vivo; conditions: for Neurotoxicity (animals that exhibit toxicity / animals tested): 30 mg/kg i.p.
Protocol: The neurotoxicity screening was undertaken according to the method followed by the National Institute of Health, using their reported procedures[55]^,[56]. Male albino mice (CF-1 strain or Swiss, 18–25 g) were used as experimental animals. The animals were housed in metabolic cages, and allowed free access to food and water. The test compounds were suspended in 0.5% methylcellulose/water mixture or in polyethylene glycol (PEG 200).
Minimal motor impairment was measured in mice by the rotarod test. The mice were trained to stay on an accelerating rotarod that rotates at six revolutions per minute. The rod diameter was 3.2 cm. Trained animals were given i.p. injection of the selected inhibitors at a dose of 30 mg/kg. Neurotoxicity was indicated by the inability of the animal to maintain equilibrium on the rod for at least 1 min in each of the three trials.

T2 sequence (P37136 32-614): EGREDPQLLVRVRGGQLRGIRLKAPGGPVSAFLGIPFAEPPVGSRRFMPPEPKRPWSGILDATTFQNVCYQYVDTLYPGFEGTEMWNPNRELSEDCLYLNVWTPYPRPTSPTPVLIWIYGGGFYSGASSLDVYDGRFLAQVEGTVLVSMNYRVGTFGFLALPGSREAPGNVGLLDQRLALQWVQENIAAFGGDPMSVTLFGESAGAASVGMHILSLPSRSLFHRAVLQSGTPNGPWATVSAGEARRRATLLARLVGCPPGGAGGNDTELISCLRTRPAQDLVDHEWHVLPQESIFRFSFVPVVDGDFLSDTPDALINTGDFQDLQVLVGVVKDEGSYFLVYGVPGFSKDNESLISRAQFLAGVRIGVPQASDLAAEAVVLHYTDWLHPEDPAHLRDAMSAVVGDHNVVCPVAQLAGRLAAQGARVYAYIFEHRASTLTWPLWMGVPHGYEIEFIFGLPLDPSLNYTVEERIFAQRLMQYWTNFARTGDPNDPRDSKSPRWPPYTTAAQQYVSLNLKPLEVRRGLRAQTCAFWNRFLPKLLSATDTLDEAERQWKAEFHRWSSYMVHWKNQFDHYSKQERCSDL

CC(=NNC(=O)Nc1ncc([N+](=O)[O-])s1)c1ccc(F)cc1 [Compound 6, 1-(1-(4-Fluorophenyl)ethylidene)-4-(5-nitrothiazol-2-yl)semicarbazide]
IC50 (MAO-A): > 100 µM and 46100 µM
% inhibition of DPPH activity [1]: 30.43%
AChE: fold decrease in activity versus bromo substitution (compound 4) (rat brain AChE; halogen at carbimino terminal phenyl ring): > 1000 fold
IC50 (rat brain AChE): 468 ± 4.98 µM
IC50 (MAO-B): 19.89 ± 0.032 µM
SI (selectivity index for MAO-B) (MAO-B): 2316.04
logP (physchem): 1.3

O=C(NN=Cc1ccc(O)cc1)Nc1ncc([N+](=O)[O-])s1 [Compound 11, 1-(4-Hydroxybenzylidene)-4-(5-nitrothiazol-2-yl)semicarbazide]
IC50 (MAO-A): 11340 ± 11.7 µM
IC50 (rat brain AChE): 584 ± 7.92 µM
IC50 (MAO-B): 241.5 ± 2.31 µM
SI (selectivity index for MAO-B) (MAO-B): 46.96
logP (physchem): 1.6

O=C1NC(=O)C(c2ccccc2)(c2ccccc2)N1 [Phenytoin, reference compound]
Neurotoxicity (animals that exhibit toxicity / animals tested) (mice; 0.5 h): 0/4
Neurotoxicity (animals that exhibit toxicity / animals tested) (mice; 1 h): 0/4
Neurotoxicity (animals that exhibit toxicity / animals tested) (mice; 2 h): 0/4
Neurotoxicity (animals that exhibit toxicity / animals tested) (mice; 4 h): 0/2

O=C1O[C@H]([C@@H](O)CO)C(O)=C1O [Ascorbic acid, reference compound]
% inhibition of DPPH activity [1]: 61.24%

CC(=NNC(=O)Nc1ncc([N+](=O)[O-])s1)c1ccc(O)cc1 [Compound 7, 1-(1-(4-Hydroxyphenyl)ethylidene)-4-(5-nitrothiazol-2-yl)semicarbazide]
IC50 (MAO-A): 5899 ± 9.84 µM
Neurotoxicity (animals that exhibit toxicity / animals tested) (mice; 0.5 h): 0/4
Neurotoxicity (animals that exhibit toxicity / animals tested) (mice; 1 h): 0/4
Neurotoxicity (animals that exhibit toxicity / animals tested) (mice; 2 h): 0/4
Neurotoxicity (animals that exhibit toxicity / animals tested) (mice; 4 h): 0/4
IC50 (rat brain AChE): 12.7 ± 0.62 µM
AChE: fold greater potency relative to compound 11 (rat brain AChE; ratio of IC50 values): ~46 fold
IC50 (MAO-B): 14.75 ± 0.018 µM
MAO-B: fold greater potency relative to compound 11 (MAO-B; ratio of IC50 values): ~16.37 fold
SI (selectivity index for MAO-B) (MAO-B): 399.93
logP (physchem): 1.2

O=C(NN=Cc1c(Cl)cccc1Cl)Nc1ncc([N+](=O)[O-])s1 [Compound 14, 1-(2,6-Dichlorobenzylidene)-4-(5-nitrothiazol-2-yl)semicarbazide]
IC50 (MAO-A): 13910 ± 19.7 µM
% inhibition of DPPH activity [1]: 55.29%
IC50 (rat brain AChE): 10.7 ± 0.56 µM
IC50 (MAO-B): 16.9 ± 0.37 µM
MAO-B: fold less active than compound 13 (MAO-B; isomeric dichloro derivatives): ~4.85 fold
SI (selectivity index for MAO-B) (MAO-B): 821.43
logP (physchem): 3.1

O=C(NN=C(CBr)c1ccc(Br)cc1)Nc1ncc([N+](=O)[O-])s1 [Compound 9, 1-(2-Bromo-1-(4-bromophenyl)ethylidene)-4-(5-nitrothiazol-2-yl)semicarbazide]
IC50 (MAO-A): 314 ± 1.89 µM
% inhibition of DPPH activity [1]: 35.89%
Neurotoxicity (animals that exhibit toxicity / animals tested) (mice; 0.5 h): 2/4
Neurotoxicity (animals that exhibit toxicity / animals tested) (mice; 1 h): 1/4
Neurotoxicity (animals that exhibit toxicity / animals tested) (mice; 2 h): 0/4
Neurotoxicity (animals that exhibit toxicity / animals tested) (mice; 4 h): 0/4
Neurotoxicity (verdict in words) (mice; 30 mg/kg, relative to phenytoin): moderately neurotoxic
IC50 (rat brain AChE): 3.926 ± 0.014 µM
IC50 (MAO-B): 0.313 ± 0.007 µM
SI (selectivity index for MAO-B) (MAO-B): 1003.19

O=C(NN=Cc1ccc(Br)cc1)Nc1ncc([N+](=O)[O-])s1 [Compound 10, 1-(4-Bromobenzylidene)-4-(5-nitrothiazol-2-yl)semicarbazide]
IC50 (MAO-A): 5153 ± 8.82 µM
IC50 (rat brain AChE): 96.4 ± 2.81 µM
IC50 (MAO-B): 5.451 ± 0.009 µM
SI (selectivity index for MAO-B) (MAO-B): 945.33
logP (physchem): 2.5

COc1ccc(OC)c(C=NNC(=O)Nc2ncc([N+](=O)[O-])s2)c1 [Compound 15, 1-(2,5-Dimethoxybenzylidene)-4-(5-nitrothiazol-2-yl)semicarbazide]
IC50 (MAO-A): > 100 µM and 55000 µM
% inhibition of DPPH activity [1]: 10.58%
IC50 (rat brain AChE): 872 ± 4.38 µM
IC50 (MAO-B): 11.1 ± 0.19 µM
SI (selectivity index for MAO-B) (MAO-B): 4945.91
